In the supplement of paper PMC10307832:

How the values were obtained:
Assay in all cases: relative viability (nuclei count vs DMSO), 5 days (fraction); higher = more cells survive
SK-MES-1 = test system: SK-MES-1
Outline: (§1)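 Cells from lung cancer lines were seeded into 1536-well plates and, one day later, dosed by pin tool. Treatments were either a single drug or a fixed dose of an anchor drug with five library-drug doses (not always all listed) in √10 steps. After 5 days, nuclei were stained in a one-step fixation (final 0.05% Triton X-100, 1% formaldehyde, 1 ug/ml Hoechst) and counted on 4× images, and relative viability is the treated-to-vehicle nuclei ratio, as the median of duplicate plates.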

HCC-366 = test system: HCC-366
Outline: as §1

NCI-H1734 = test system: NCI-H1734
Outline: as §1

NCI-H1437 = test system: NCI-H1437
Outline: as §1

NCI-H1355 = test system: NCI-H1355
Outline: as §1

NCI-H1792 = test system: NCI-H1792
Outline: as §1

SK-LU-1 = test system: SK-LU-1
Outline: as §1

HCC-827 = test system: HCC-827
Outline: as §1

NCI-H647 = test system: NCI-H647
Outline: as §1

NCI-H2009 = test system: NCI-H2009
Outline: as §1

NCI-H2087 = test system: NCI-H2087
Outline: as §1

HARA = test system: HARA
Outline: as §1

EKVX = test system: EKVX
Outline: as §1

NCI-H1395 = test system: NCI-H1395
Outline: as §1

NCI-H2170 = test system: NCI-H2170
Outline: as §1

NCI-H1993 = test system: NCI-H1993
Outline: as §1

NCI-H2342 = test system: NCI-H2342
Outline: as §1

NCI-H661 = test system: NCI-H661
Outline: as §1

BEN = test system: BEN
Outline: as §1

LOU-NH91 = test system: LOU-NH91
Outline: as §1

NCI-H2405 = test system: NCI-H2405
Outline: as §1

NCI-H522 = test system: NCI-H522
Outline: as §1

SMILES: CC(=O)O[C@@]12CO[C@@H]1C[C@H](O)[C@@]1(C)C(=O)[C@H](O)C3=C(C)[C@@H](OC(=O)[C@H](O)[C@@H](NC(=O)OC(C)(C)C)c4ccccc4)C[C@@](O)([C@@H](OC(=O)c4ccccc4)[C@H]21)C3(C)C [Docetaxel] + Cc1nc(Nc2ncc(C(=O)Nc3c(C)cccc3Cl)s2)cc(N2CCN(CCO)CC2)n1 [Dasatinib] (partner 0.075 µM)
- relative viability (SK-MES-1; first compound 0.0002 µM): 0.326
- relative viability (SK-MES-1; first compound 0.000632 µM): 0.316
- relative viability (SK-MES-1; first compound 0.002 µM): 0.19
- relative viability (SK-MES-1; first compound 0.006325 µM): 0.167
- relative viability (SK-MES-1; first compound 0.02 µM): 0.072
- relative viability (HCC-366; first compound 0.0002 µM): 0.569
- relative viability (HCC-366; first compound 0.000632 µM): 0.255
- relative viability (HCC-366; first compound 0.002 µM): 0.119
- relative viability (HCC-366; first compound 0.006325 µM): 0.0384
- relative viability (HCC-366; first compound 0.02 µM): 0.0228
- relative viability (NCI-H1734; first compound 0.0002 µM): 0.46
- relative viability (NCI-H1734; first compound 0.000632 µM): 0.286
- relative viability (NCI-H1734; first compound 0.002 µM): 0.234
- relative viability (NCI-H1734; first compound 0.006325 µM): 0.239
- relative viability (NCI-H1734; first compound 0.02 µM): 0.163
- relative viability (NCI-H1437; first compound 0.0002 µM): 0.339
- relative viability (NCI-H1437; first compound 0.000632 µM): 0.259
- relative viability (NCI-H1437; first compound 0.002 µM): 0.268
- relative viability (NCI-H1437; first compound 0.006325 µM): 0.174
- relative viability (NCI-H1437; first compound 0.02 µM): 0.122
- relative viability (NCI-H1355; first compound 0.0002 µM): 0.726
- relative viability (NCI-H1355; first compound 0.000632 µM): 0.665
- relative viability (NCI-H1355; first compound 0.002 µM): 0.472
- relative viability (NCI-H1355; first compound 0.006325 µM): 0.314
- relative viability (NCI-H1355; first compound 0.02 µM): 0.203
- relative viability (NCI-H1792; first compound 0.0002 µM): 0.796
- relative viability (NCI-H1792; first compound 0.000632 µM): 0.707
- relative viability (NCI-H1792; first compound 0.002 µM): 0.648
- relative viability (NCI-H1792; first compound 0.006325 µM): 0.482
- relative viability (NCI-H1792; first compound 0.02 µM): 0.22
- relative viability (SK-LU-1; first compound 0.0002 µM): 0.175
- relative viability (SK-LU-1; first compound 0.000632 µM): 0.156
- relative viability (SK-LU-1; first compound 0.006325 µM): 0.122
- relative viability (SK-LU-1; first compound 0.02 µM): 0.132
- relative viability (HCC-827; first compound 0.0002 µM): 0.237
- relative viability (HCC-827; first compound 0.000632 µM): 0.297
- relative viability (HCC-827; first compound 0.002 µM): 0.289
- relative viability (HCC-827; first compound 0.006325 µM): 0.22
- relative viability (HCC-827; first compound 0.02 µM): 0.155
- relative viability (NCI-H647; first compound 0.0002 µM): 0.137
- relative viability (NCI-H647; first compound 0.000632 µM): 0.132
- relative viability (NCI-H647; first compound 0.002 µM): 0.0799
- relative viability (NCI-H647; first compound 0.006325 µM): 0.0795
- relative viability (NCI-H647; first compound 0.02 µM): 0.0407
- relative viability (NCI-H2009; first compound 0.0002 µM): 0.261
- relative viability (NCI-H2009; first compound 0.000632 µM): 0.299
- relative viability (NCI-H2009; first compound 0.002 µM): 0.273
- relative viability (NCI-H2009; first compound 0.006325 µM): 0.204
- relative viability (NCI-H2009; first compound 0.02 µM): 0.121
- relative viability (NCI-H2087; first compound 0.0002 µM): 0.809
- relative viability (NCI-H2087; first compound 0.000632 µM): 0.371
- relative viability (NCI-H2087; first compound 0.002 µM): 0.171
- relative viability (NCI-H2087; first compound 0.006325 µM): 0.139
- relative viability (NCI-H2087; first compound 0.02 µM): 0.102
- relative viability (HARA; first compound 0.0002 µM): 0.261
- relative viability (HARA; first compound 0.000632 µM): 0.173
- relative viability (HARA; first compound 0.002 µM): 0.134
- relative viability (HARA; first compound 0.006325 µM): 0.0839
- relative viability (HARA; first compound 0.02 µM): 0.0451
- relative viability (EKVX; first compound 0.0002 µM): 0.472
- relative viability (EKVX; first compound 0.000632 µM): 0.45
- relative viability (EKVX; first compound 0.002 µM): 0.296
- relative viability (EKVX; first compound 0.006325 µM): 0.264
- relative viability (EKVX; first compound 0.02 µM): 0.195
- relative viability (NCI-H1395; first compound 0.0002 µM): 0.439
- relative viability (NCI-H1395; first compound 0.000632 µM): 0.469
- relative viability (NCI-H1395; first compound 0.002 µM): 0.402
- relative viability (NCI-H1395; first compound 0.006325 µM): 0.327
- relative viability (NCI-H1395; first compound 0.02 µM): 0.272
- relative viability (NCI-H2170; first compound 0.0002 µM): 0.6
- relative viability (NCI-H2170; first compound 0.000632 µM): 0.574
- relative viability (NCI-H2170; first compound 0.002 µM): 0.428
- relative viability (NCI-H2170; first compound 0.006325 µM): 0.141
- relative viability (NCI-H2170; first compound 0.02 µM): 0.14
- relative viability (NCI-H1993; first compound 0.0002 µM): 0.569
- relative viability (NCI-H1993; first compound 0.000632 µM): 0.612
- relative viability (NCI-H1993; first compound 0.002 µM): 0.589
- relative viability (NCI-H1993; first compound 0.006325 µM): 0.638
- relative viability (NCI-H1993; first compound 0.02 µM): 0.465
- relative viability (NCI-H2342; first compound 0.0002 µM): 0.309
- relative viability (NCI-H2342; first compound 0.000632 µM): 0.326
- relative viability (NCI-H2342; first compound 0.002 µM): 0.308
- relative viability (NCI-H2342; first compound 0.006325 µM): 0.285
- relative viability (NCI-H2342; first compound 0.02 µM): 0.265
- relative viability (NCI-H661; first compound 0.0002 µM): 0.836
- relative viability (NCI-H661; first compound 0.000632 µM): 0.792
- relative viability (NCI-H661; first compound 0.002 µM): 0.528
- relative viability (NCI-H661; first compound 0.006325 µM): 0.395
- relative viability (NCI-H661; first compound 0.02 µM): 0.284
- relative viability (BEN; first compound 0.0002 µM): 0.281
- relative viability (BEN; first compound 0.000632 µM): 0.355
- relative viability (BEN; first compound 0.002 µM): 0.328
- relative viability (BEN; first compound 0.006325 µM): 0.183
- relative viability (BEN; first compound 0.02 µM): 0.154
- relative viability (LOU-NH91; first compound 0.0002 µM): 0.553
- relative viability (LOU-NH91; first compound 0.000632 µM): 0.533
- relative viability (LOU-NH91; first compound 0.002 µM): 0.345
- relative viability (LOU-NH91; first compound 0.006325 µM): 0.304
- relative viability (LOU-NH91; first compound 0.02 µM): 0.247
- relative viability (NCI-H2405; first compound 0.0002 µM): 0.2
- relative viability (NCI-H2405; first compound 0.000632 µM): 0.178
- relative viability (NCI-H2405; first compound 0.002 µM): 0.199
- relative viability (NCI-H2405; first compound 0.006325 µM): 0.149
- relative viability (NCI-H2405; first compound 0.02 µM): 0.14
- relative viability (NCI-H522; first compound 0.0002 µM): 0.712
- relative viability (NCI-H522; first compound 0.000632 µM): 0.866
- relative viability (NCI-H522; first compound 0.002 µM): 0.649
- relative viability (NCI-H522; first compound 0.006325 µM): 0.672
- relative viability (NCI-H522; first compound 0.02 µM): 0.49
